The subject of assay [1] is LC α1-adrenoceptors. The assay can be described thus: Novel cage test after LC microinjection. The settings on record: for Gross movements: 15 min novel cage. Type of assay: in vivo, rat.
Assay [2] relates to α1-adrenoceptors. The settings on record: cited from earlier work.
Assay [3] concerns Fos expression in LC, PVH, lateral septal nucleus and NAC. Particulars: stimulation or blockade of LC α1-receptors (Stone et al. 2011); cited from earlier work.
Assay [4] relates to Swiss Webster male mice. The assay can be described thus: Tail suspension test. Type of assay: in vivo, mouse.
Protocol: In experiment on chronic administration, a daily dose of 0.5 mg/kg in the same vehicle was administered for 11 d.
Infusion procedure. All experiments were performed between 1000 and 1400 hr. […] A total of 350 n1 of solution was infused at 100 nl/min over a 3.5 min period with the cannula remaining in place for 30 seconds after infusion. The animal was then subjected to the behavioral tests described below making the interval between the start of infusion and start of behavioral test 4.5-5 min. […] All drugs were prepared freshly each day in saline.
Tail suspension test: The procedure of Stem, et al., Psychopharmacology 1985; 85: 367-370 was used. Immediately following intraventricular infusion or 30 min after the third i.p. injection, the animals were taped by the tail 72 cm above a padded platform for 6 min during which time they were videorecorded. Disks were subsequently rated blind as above for times immobile during the last 4 min of the test.
[5] abbreviates: Outside LC (n = 23), 3 nmoles/side.
Where [6] appears, read: Within LC (n = 25), 3 nmoles/side.
Where [7] appears, read: entire within LC group vs vehicle, 3 nmoles/side.

The structures appear in SMILES notation. Marks after values point to notes of the source that are not given here.

As for `COc1cc2nc(N3CCN(C(=O)C4CCCO4)CC3)nc(N)c2cc1OC` (stereo not shown) [terazosin], in assay [1] (setting [5]), the Cage midline crosses is on record as 16.4 ± 1.5^c, the “Time immobile (min)” value is recorded as 2.2 ± 0.5^c min and the Gross movements is 123.5 ± 7.9^c. Further, in assay [1] (setting [6]), the Cage midline crosses is reported as 9.2 ± 2.0^b,e, the “Time immobile (min)” value is 7.2 ± 1.6^b,d min and the Gross movements was 71.7 ± 11.7^a,d. Moreover, in assay [1] (bilaterally injected animals), the “TI-” value stood at 7.4 ± 1.4 min, the “percent decrease of GMs with respect to vehicle” value is 54.6±9.1% and the “percent decrease of cage Xs with respect to vehicle” value is on record as 53.7±12.1%. In addition, in assay [1] (direct hits of LC), the “percent depression of GMs compared to mean of the vehicle group” value (from here on “percent depression of GMs”) is on record as 63.5±7.2%. In assay [1] (setting [7]), the “increase of TI” value is recorded as 77 fold, the “reduction of GMs” value worked out at 54% and the “reduction of cage Xs” value stood at 55%. Also, the “percent depression of GMs” value in assay [1] (injection within 200μ of LC) is 54.0±7.5%. The “percent depression of GMs” value in assay [1] (injection within 500μ of LC) was 45.6±7.0%. In assay [1] (unilaterally injected animals), the “TI-” value was 6.1 ± 1.7 min, the “percent decrease of GMs with respect to vehicle” value stood at 50.5±11.1% and the “percent decrease of cage Xs with respect to vehicle” value worked out at 52.1±16.5%. Further, the “affinity for respective receptor” value in assay [2] is “low nanomolar affinities”. For the same molecule, the “neural activity of the LC measured from c-Fos expression” value in assay [3] was “excitation of virtually every neuron of the nucleus”. Also, the “effect of coinfused antagonist on anti-immobility effect of 6FNE” value in assay [4] (6FNE 3 nmoles + antagonist 1 nmole ivt.) was “significantly increased immobility when coinfused with 6FNE”. In addition, the “effect of antagonist alone on immobility (antagonist+vehicle versus vehicle-only)” value in assay [4] (antagonist 1 nmole ivt.) is given as “significantly increased immobility in the vehicle-treated animals”.

The record behind these values is patent publication US9023788B2, “Methods compounds and pharmaceutical compositions for treating anxiety and mood disorders” (New York University, priority 2010, dated 2015).
